The target in one series is RNA. Description: Binding affinity to CAG repeat RNA (unknown origin) assessed as dissociation constant. Format: nucleic-acid assay.
For a further series, the target named is T1, Caspase-6 (Homo sapiens, UniProt P55212).
T1 sequence (P55212 whole entry): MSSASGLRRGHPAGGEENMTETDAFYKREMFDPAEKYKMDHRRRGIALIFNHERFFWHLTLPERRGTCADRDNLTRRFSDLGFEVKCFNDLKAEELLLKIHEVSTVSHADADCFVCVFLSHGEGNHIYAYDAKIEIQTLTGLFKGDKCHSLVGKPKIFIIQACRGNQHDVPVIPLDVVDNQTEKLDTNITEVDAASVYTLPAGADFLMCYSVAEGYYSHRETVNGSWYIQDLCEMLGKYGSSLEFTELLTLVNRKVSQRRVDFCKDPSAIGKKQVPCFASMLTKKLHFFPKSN
Kind of series: Inhibition of Caspase-6 activity (unknown origin) by FRET assay.

The target of series [1] is T2, Huntingtin (Homo sapiens, UniProt P42858). Description: Inhibition of HTT (unknown origin) aggregation at 5 uM relative to control.
A further series deals with COS-7. Kind of series: Cytotoxicity against african green monkey COS-7 cells assessed as reduction in cell growth. Format: toxicity, cell-based. Also noted: scale not given: the % may be the effect or the level left. The note with it: chlorocebus aethiops.
The target of series [2] is T2, Huntingtin. Description: Binding affinity to HTT (unknown origin) assessed as dissociation constant by surface plasmon resonance assay. A general note: SPR reads the build-up and loss of mass on a sensor chip optically.
For series [3], the target named is T2, Huntingtin. Description: Inhibition of HTT (unknown origin) by ELISA method. A general note: ELISA stands for enzyme-linked immunosorbent assay.
Series [4] in a line: Inhibition of YFP aggregation in african green monkey COS-7 cells at 70 nM relative to control. It is filed as functional. The following applies: Chlorocebus aethiops.

T2 sequence (P42858 whole entry): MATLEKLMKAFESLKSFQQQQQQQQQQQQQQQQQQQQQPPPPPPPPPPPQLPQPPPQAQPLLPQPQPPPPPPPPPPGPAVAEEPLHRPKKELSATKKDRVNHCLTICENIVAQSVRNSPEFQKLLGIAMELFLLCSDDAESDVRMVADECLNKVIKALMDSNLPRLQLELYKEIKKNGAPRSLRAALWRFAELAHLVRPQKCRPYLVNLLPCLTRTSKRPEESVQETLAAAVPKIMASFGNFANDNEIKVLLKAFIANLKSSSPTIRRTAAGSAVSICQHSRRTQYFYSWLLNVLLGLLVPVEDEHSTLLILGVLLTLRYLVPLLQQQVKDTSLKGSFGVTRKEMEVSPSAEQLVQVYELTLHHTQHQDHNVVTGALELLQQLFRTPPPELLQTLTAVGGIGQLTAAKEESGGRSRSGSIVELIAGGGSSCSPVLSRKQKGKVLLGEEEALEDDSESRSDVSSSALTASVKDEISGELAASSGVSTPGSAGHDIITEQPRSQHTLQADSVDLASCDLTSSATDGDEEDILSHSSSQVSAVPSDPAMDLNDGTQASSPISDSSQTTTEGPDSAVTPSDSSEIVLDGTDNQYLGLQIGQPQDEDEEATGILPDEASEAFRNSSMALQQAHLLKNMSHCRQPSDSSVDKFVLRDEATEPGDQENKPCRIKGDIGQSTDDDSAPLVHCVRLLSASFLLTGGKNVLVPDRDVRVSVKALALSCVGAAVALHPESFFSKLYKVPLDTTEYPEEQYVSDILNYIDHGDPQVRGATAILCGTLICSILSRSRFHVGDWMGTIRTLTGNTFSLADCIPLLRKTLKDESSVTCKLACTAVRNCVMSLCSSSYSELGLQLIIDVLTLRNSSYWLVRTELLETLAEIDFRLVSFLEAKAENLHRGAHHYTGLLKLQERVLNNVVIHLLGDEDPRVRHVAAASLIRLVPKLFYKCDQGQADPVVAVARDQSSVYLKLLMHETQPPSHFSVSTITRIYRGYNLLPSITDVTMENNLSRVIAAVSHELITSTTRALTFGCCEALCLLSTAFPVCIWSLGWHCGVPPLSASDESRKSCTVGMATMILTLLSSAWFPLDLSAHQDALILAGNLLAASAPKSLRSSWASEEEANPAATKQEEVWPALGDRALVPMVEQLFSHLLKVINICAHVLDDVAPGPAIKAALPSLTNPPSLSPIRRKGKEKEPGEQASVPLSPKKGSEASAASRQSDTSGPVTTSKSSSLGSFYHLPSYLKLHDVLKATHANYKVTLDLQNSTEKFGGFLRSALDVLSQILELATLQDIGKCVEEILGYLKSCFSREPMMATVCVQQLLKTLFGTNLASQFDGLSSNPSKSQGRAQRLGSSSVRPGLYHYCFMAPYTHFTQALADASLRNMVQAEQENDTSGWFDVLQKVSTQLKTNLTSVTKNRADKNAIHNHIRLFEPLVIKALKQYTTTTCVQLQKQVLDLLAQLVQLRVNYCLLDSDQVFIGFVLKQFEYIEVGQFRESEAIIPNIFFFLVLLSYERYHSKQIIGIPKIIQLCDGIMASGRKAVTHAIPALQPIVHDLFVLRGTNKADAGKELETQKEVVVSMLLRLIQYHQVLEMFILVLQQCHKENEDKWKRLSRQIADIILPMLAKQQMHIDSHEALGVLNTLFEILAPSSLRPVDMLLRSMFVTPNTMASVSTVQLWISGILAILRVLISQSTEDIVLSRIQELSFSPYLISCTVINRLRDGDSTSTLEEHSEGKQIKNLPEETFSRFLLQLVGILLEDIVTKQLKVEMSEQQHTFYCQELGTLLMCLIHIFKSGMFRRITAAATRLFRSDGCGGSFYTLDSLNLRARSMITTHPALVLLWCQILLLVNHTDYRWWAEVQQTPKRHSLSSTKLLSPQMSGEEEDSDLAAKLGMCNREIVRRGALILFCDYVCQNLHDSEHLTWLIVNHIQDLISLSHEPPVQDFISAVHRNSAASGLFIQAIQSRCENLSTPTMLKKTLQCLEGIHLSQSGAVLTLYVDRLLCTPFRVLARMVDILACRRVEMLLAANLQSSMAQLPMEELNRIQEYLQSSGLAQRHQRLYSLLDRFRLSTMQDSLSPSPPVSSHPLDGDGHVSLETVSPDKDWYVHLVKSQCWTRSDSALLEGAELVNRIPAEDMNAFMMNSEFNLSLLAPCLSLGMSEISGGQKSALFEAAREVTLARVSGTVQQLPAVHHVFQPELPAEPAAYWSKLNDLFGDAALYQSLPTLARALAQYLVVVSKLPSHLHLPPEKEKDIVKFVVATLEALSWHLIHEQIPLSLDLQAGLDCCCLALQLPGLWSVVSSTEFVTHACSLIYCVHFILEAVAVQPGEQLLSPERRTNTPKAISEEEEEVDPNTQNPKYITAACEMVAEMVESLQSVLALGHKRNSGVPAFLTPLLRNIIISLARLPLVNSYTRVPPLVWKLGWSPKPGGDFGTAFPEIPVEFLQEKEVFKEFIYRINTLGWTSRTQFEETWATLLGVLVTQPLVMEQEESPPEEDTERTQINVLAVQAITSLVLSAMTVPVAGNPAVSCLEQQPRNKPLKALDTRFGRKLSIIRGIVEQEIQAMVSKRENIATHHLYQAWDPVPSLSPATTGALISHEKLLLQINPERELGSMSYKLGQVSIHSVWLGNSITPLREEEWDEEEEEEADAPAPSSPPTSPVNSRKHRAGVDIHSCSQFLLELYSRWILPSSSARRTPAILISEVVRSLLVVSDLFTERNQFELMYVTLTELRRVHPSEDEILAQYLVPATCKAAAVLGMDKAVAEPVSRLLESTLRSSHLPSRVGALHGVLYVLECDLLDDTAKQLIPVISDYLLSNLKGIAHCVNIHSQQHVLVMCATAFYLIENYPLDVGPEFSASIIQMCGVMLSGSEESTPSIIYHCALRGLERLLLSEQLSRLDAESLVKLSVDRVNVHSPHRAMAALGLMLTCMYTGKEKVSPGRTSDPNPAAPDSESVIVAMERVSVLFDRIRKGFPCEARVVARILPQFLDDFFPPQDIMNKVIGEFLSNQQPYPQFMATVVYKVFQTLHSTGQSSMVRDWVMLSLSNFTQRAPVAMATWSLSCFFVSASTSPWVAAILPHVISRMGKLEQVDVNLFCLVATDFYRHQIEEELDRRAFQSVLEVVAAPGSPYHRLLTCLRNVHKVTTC

With Ac-DGKSKGIAYIEFK-NH2, at RNA, the Kd was 0.33 nM. With H-AEIRLVSKDGKSKGIAYIEFK-OH, the Kd at RNA was 660 nM.

As for H-DGKSKGIAYIEFK-OH, the Kd on RNA turned out to be 8.37 nM.

H-GRKKRRQRRRPPQSSEIVLDGTDN-OH: at Caspase-6, the IC50 was determined as 12.1 nM.

Substance H-MATLEKLMKAFESLKSF-OH yielded an inhibition at Huntingtin [1] of 20%. For H-RQIKIWFQNRRMKWKKSNWKWWPGIFD-OH, the Activity with COS-7 is recorded as 30.2%. In the case of H-SNWKWWPGIFD-OH, the Kd on Huntingtin [2] came out at 5700 nM. Besides, the IC50 on Huntingtin [3] was determined as 5000 nM. H-WKWWPGIFDYGRKKRRQRRR-OH gave an inhibition at 0.07 µM in series [4] of 81.2%.

One may read the Kd as a measure of binding affinity in units of concentration. As usually defined, the IC50 is the midpoint of a concentration-inhibition curve. In general, inhibition refers to the percentage by which the read-out fell short of the control.

For the origin of these results see ChEMBL document CHEMBL5537175, “Unraveling the Puzzle of Therapeutic Peptides: A Promising Frontier in Huntington's Disease Treatment” (J Med Chem, 2024).
